Several values for one entry are separate records, joined by “and”; a condition that tells them apart may be missing. Identical values can stand only once.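 Tested at 5 concentrations; 48 h exposure; 96-well plates; endpoints linearly interpolated, else capped at highest concentration. GI50 = concentration required for 50% inhibition of growth.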 Activity calls are given as the source filed them. Rule as the data show it: active = GI50 up to about 1.1 µM and inactive = higher.
Columns and labels:
Experiment in all cases: NCI tumour cell line growth inhibition, 48 h
A549 = tested on: A549
COLO 205 = tested on: COLO 205
DU-145 = tested on: DU-145
EKVX = tested on: EKVX
HCT-15 = tested on: HCT-15
HOP-62 = tested on: HOP-62
HOP-92 = tested on: HOP-92
HT-29 = tested on: HT-29
K562 = tested on: K562
KM12 = tested on: KM12
MDA-N = tested on: MDA-N
Malme-3M = tested on: Malme-3M
NCI/ADR-RES = tested on: NCI/ADR-RES
PC-3 = tested on: PC-3
SF-295 = tested on: SF-295
SK-MEL-5 = tested on: SK-MEL-5
SW-620 = tested on: SW-620
U-251 = tested on: U-251
UACC-62 = tested on: UACC-62

| Structure (SMILES) | GI50 (A549) | GI50 (COLO 205) | GI50 (DU-145) | GI50 (EKVX) | GI50 (HCT-15) [µM] | GI50 (HOP-62) | GI50 (HOP-92) | GI50 (HT-29) | GI50 (K562) | GI50 (KM12) | GI50 (MDA-N) | GI50 (Malme-3M) | GI50 (NCI/ADR-RES) | GI50 (PC-3) | GI50 (SF-295) | GI50 (SK-MEL-5) | GI50 (SW-620) | GI50 (U-251) | GI50 (UACC-62) |
| --- | --- | --- | --- | --- | --- | --- | --- | --- | --- | --- | --- | --- | --- | --- | --- | --- | --- | --- | --- |
| CN(C)c1ccc(/C=c2\c3ccccc3n3c2cc(-c2ccccc2)[n+]3C)cc1 | 0.201 µM (active) | 0.0143 µM (active) | 0.222 µM (active) | 0.32 µM (active) | 1.2 | 0.303 µM (active) | 0.284 µM (active) | 0.0891 µM (active) | 0.07 µM (active) | 0.185 µM (active) | 0.144 µM (active) | 0.153 µM (active) | 4.45 µM (inactive) | 0.0726 µM (active) | 0.213 µM (active) | 0.0728 µM (active) | 0.119 µM (active) | 0.0322 µM (active) | 0.365 µM (active) |
| O=[N+]([O-])c1cc(-[n+]2cc([O-])on2)ccc1F | 17 µM (inactive) | 17.7 µM (inactive) | 12.8 µM (inactive) | 18 µM (inactive) | 20.3 | 15.8 µM (inactive) | 16.9 µM (inactive) | 14.9 µM (inactive) | 34.4 µM (inactive) | 17.2 µM (inactive) | 16.1 µM (inactive) | 14.7 µM (inactive) | 21.2 µM (inactive) | 18.4 µM (inactive) | 17.3 µM (inactive) | 15 µM (inactive) | 18.4 µM (inactive) | 18.1 µM (inactive) | 17.1 µM (inactive) |
| CC(O)(CNS(=O)(=O)c1ccccc1)c1ccccc1 (stereo not drawn) | > 100 µM (inactive) | > 100 µM (inactive) | > 100 µM (inactive) | > 100 µM (inactive) | > 100 | > 100 µM (inactive) | > 100 µM (inactive) | > 100 µM (inactive) | > 100 µM (inactive) | > 100 µM (inactive) | > 100 µM (inactive) | > 100 µM (inactive) | > 100 µM (inactive) | > 100 µM (inactive) | > 100 µM (inactive) | > 100 µM (inactive) | > 100 µM (inactive) | > 100 µM (inactive) | > 100 µM (inactive) |
| NC(=O)CC(N)c1nnn[nH]1 (stereo not drawn) | > 100 µM (inactive) | > 100 µM (inactive) | > 100 µM (inactive) | > 100 µM (inactive) | > 100 | > 100 µM (inactive) | > 100 µM (inactive) | > 100 µM (inactive) | > 100 µM (inactive) | > 100 µM (inactive) | > 100 µM (inactive) | > 100 µM (inactive) | > 100 µM (inactive) | > 100 µM (inactive) | > 100 µM (inactive) | > 100 µM (inactive) | > 100 µM (inactive) | > 100 µM (inactive) | > 100 µM (inactive) |
| CC[C@]1(Cc2ccc(OC)c(OC)c2)CN(S(=O)(=O)c2ccc(C)cc2)C[C@@H]1OC(C)=O | 54.8 µM (inactive) | > 100 µM (inactive) | > 100 µM (inactive) | > 100 µM (inactive) | > 100 | 33 µM (inactive) | 40.4 µM (inactive) | 96.8 µM (inactive) | > 100 µM (inactive) | > 100 µM (inactive) | > 100 µM (inactive) | > 100 µM (inactive) | > 100 µM (inactive) | 75.7 µM (inactive) | 38.5 µM (inactive) | > 100 µM (inactive) | > 100 µM (inactive) | 65.6 µM (inactive) | > 100 µM (inactive) |
| O=C(OCC1OC(c2nn[nH]n2)C(OC(=O)c2ccccc2)C1OC(=O)c1ccccc1)c1ccccc1 (stereo not drawn) | > 100 µM (inactive) | > 100 µM (inactive) | > 100 µM (inactive) | 66.1 µM (inactive) | > 100 | > 100 µM (inactive) | > 100 µM (inactive) | 61.9 µM (inactive) | 46.2 µM (inactive) | 67.6 µM (inactive) | > 100 µM (inactive) | > 100 µM (inactive) | > 100 µM (inactive) | > 100 µM (inactive) | > 100 µM (inactive) | > 100 µM (inactive) | > 100 µM (inactive) | > 100 µM (inactive) | 53 µM (inactive) |
| NC1CC(=O)c2csc(Cl)c21 (stereo not drawn) | 17.9 µM (inactive) | 5.32 µM (inactive) | 8.11 µM (inactive) | 17.3 µM (inactive) | 5.41 | 14.1 µM (inactive) | 4.46 µM (inactive) | 10.3 µM (inactive) | 2.74 µM (inactive) | 0.736 µM (active) | 8.63 µM (inactive) | 2.68 µM (inactive) | 27 µM (inactive) | 10.1 µM (inactive) | 17.1 µM (inactive) | 18.5 µM (inactive) | 2.05 µM (inactive) | 8.51 µM (inactive) | 10 µM (inactive) |
| O=C(/C=C1\Nc2ccc([N+](=O)[O-])cc2N\C1=C/C(=O)c1ccc(F)cc1)c1ccc(F)cc1 | > 100 µM (inactive) | > 100 µM (inactive) | > 100 µM (inactive) | 45.9 µM (inactive) | 64.7 | 7.35 µM (inactive) | 35.1 µM (inactive) | > 100 µM (inactive) | 22.2 µM (inactive) | > 100 µM (inactive) | > 100 µM (inactive) | > 100 µM (inactive) | 82 µM (inactive) | > 100 µM (inactive) | 14.9 µM (inactive) | 78.5 µM (inactive) | > 100 µM (inactive) | 10.2 µM (inactive) | 29.4 µM (inactive) |
| O=[N+]([O-])c1ccccc1CSc1nc(O)c2nc[nH]c2n1 | > 100 µM (inactive) | > 100 µM (inactive) | > 100 µM (inactive) | 51.8 µM (inactive) | > 100 | > 100 µM (inactive) | > 100 µM (inactive) | 72.6 µM (inactive) | > 100 µM (inactive) | > 100 µM (inactive) | > 100 µM (inactive) | > 100 µM (inactive) | > 100 µM (inactive) | 79.8 µM (inactive) | > 100 µM (inactive) and 99.8 µM (inactive) | > 100 µM (inactive) | > 100 µM (inactive) | > 100 µM (inactive) and 96.4 µM (inactive) | > 100 µM (inactive) and 88.1 µM (inactive) |
| COc1cc2oc3c(c(=O)c2c(O)c1/C=C/C(C)C)CCC(C)(C)Oc1cc(O)ccc1-3 | 12 µM (inactive) | 16.4 µM (inactive) | 33.8 µM (inactive) | 18.1 µM (inactive) | 10.2 | 15.4 µM (inactive) | 17.6 µM (inactive) | 7.13 µM (inactive) | 4.32 µM (inactive) | 7.41 µM (inactive) | 13 µM (inactive) | 20 µM (inactive) | 15.4 µM (inactive) | 15.2 µM (inactive) | 13.3 µM (inactive) | 18.7 µM (inactive) | 21.4 µM (inactive) | 20.5 µM (inactive) | 15.6 µM (inactive) |
| COc1cc2c(cc1O)NC(=S)[C@@H]1CCCN1C2=O | > 100 µM (inactive) | > 100 µM (inactive) | > 100 µM (inactive) | > 100 µM (inactive) | > 100 | > 100 µM (inactive) | > 100 µM (inactive) | > 100 µM (inactive) | > 100 µM (inactive) | > 100 µM (inactive) | > 100 µM (inactive) | > 100 µM (inactive) | > 100 µM (inactive) | > 100 µM (inactive) | 97.1 µM (inactive) | > 100 µM (inactive) | > 100 µM (inactive) | > 100 µM (inactive) | > 100 µM (inactive) |
| CC(=O)O[C@H]1C(=O)[C@@]2(C)[C@H]([C@H](OC(=O)c3ccccc3)[C@]3(O)C[C@H](OC(=O)[C@H](O)[C@@H](NC(=O)c4ccccc4)c4ccc5ccccc5c4)C(C)=C1C3(C)C)[C@]1(OC(C)=O)CO[C@@H]1C[C@@H]2O | 0.0998 µM (active) | 0.0787 µM (active) | 0.1 µM (active) | 5.35 µM (inactive) | 1.54 | 0.0506 µM (active) | 2.25 µM (inactive) | 0.0454 µM (active) | 0.029 µM (active) | 0.0512 µM (active) | 0.0101 µM (active) | 0.179 µM (active) | 15.7 µM (inactive) | 0.0553 µM (active) | 0.304 µM (active) | 0.0685 µM (active) | 0.0306 µM (active) | 0.0692 µM (active) | 0.0463 µM (active) |
| CN(CCNC(=O)c1cc(-c2ccccc2)nc2ccccc12)CCNC(=O)c1cc(-c2ccccc2)nc2ccccc12 | > 100 µM (inactive) | 2.22 µM (inactive) | 12.5 µM (inactive) | 15.9 µM (inactive) | > 80.5 | 26.1 µM (inactive) | 2.61 µM (inactive) | 2.14 µM (inactive) | 3.55 µM (inactive) | 4.46 µM (inactive) | 11.1 µM (inactive) | 2.12 µM (inactive) | > 100 µM (inactive) | 10.3 µM (inactive) | 13.2 µM (inactive) | 2.31 µM (inactive) | 6.12 µM (inactive) | 8.75 µM (inactive) | 12.9 µM (inactive) |
| c1ccc(/C(=N/Nc2ccccn2)c2cccnn2)cc1 | 2.43 µM (inactive) | 0.741 µM (active) | 2.62 µM (inactive) | 1.74 µM (inactive) | 0.824 | 2.85 µM (inactive) | 5.48 µM (inactive) | 1.16 µM (inactive) | 1.47 µM (inactive) | 2.72 µM (inactive) | 7.57 µM (inactive) | 5.4 µM (inactive) | 2.17 µM (inactive) | 5.86 µM (inactive) | 3.11 µM (inactive) | 2.35 µM (inactive) | 3.44 µM (inactive) | 4.21 µM (inactive) | 3.44 µM (inactive) |
| O=S(=O)(O)CCCC1S(=O)(=O)OCCOS1(=O)=O |  | > 100 µM (inactive) | > 100 µM (inactive) | > 100 µM (inactive) | > 100 | > 100 µM (inactive) | > 100 µM (inactive) | > 100 µM (inactive) |  | > 100 µM (inactive) | > 100 µM (inactive) | > 100 µM (inactive) | > 100 µM (inactive) | > 100 µM (inactive) | > 100 µM (inactive) | > 100 µM (inactive) | > 100 µM (inactive) | > 100 µM (inactive) | > 100 µM (inactive) |
